Assays:
HarmPBP1 mutant F36A = HarmPBP1 mutant F36A (Helicoverpa armigera, UniProt F5ANH9, F63A); experiment: Fluorescence binding assay (1-NPN probe), mutant F36A
Description: (§1) Fluorescence binding assays were performed in a reaction system at pH7.4. Probed by 1-NPN, the maximum emission wavelengths of F12A, F36A, W37A, F119A and Q64A were in the range of 390–410 nm, which are similar to that of HarmPBP1 (400 nm).
(§2) Four mutations of HarmPBP1, F12A (mutating phenylalanine to alanine at position 12), F36A (mutating phenylalanine to alanine at position 36), W37A (mutating tryptophan to alanine at position 37) and F119A (mutating phenylalanine to alanine at position 119) were generated by using the Quick-change lightning site-directed mutagenesis kit (Stratagene, USA), and a random mutation, Q64A (mutating glutanine to alanine at position 64) was set as control. The pGEM-T Easy/HarmPBP1 construct was used as template, and the specific primers designed for mutations were also listed in Table 1. The PCR conditions were 95 °C for 30 s, followed by 18 cycles of 95 °C for 30 s, 60 °C for 1 min, 68 °C for 4 min. Valid mutants were sub-cloned into pGEM-T easy vector (Promega, USA). Same expression vector and competent cells were used as the HarmPBP1. The recombinant mutant protein prokaryotic expression and purification were conducted as mentioned above.
(§3) Fluorescence binding assays were conducted on the F-380 fluorescence spectrophotometer (Gangdong Sci. & Tech, Tianjin, China) in a 1-cm light path quartz cuvette to further investigate the binding abilities of the principal pheromone components of H. armigera, Z11-16:Ald and Z9-16:Ald, to mutants. The fluorescent probe N-phenyl- 1-naphthylamine (1-NPN) was dissolved in methanol to yield a 1 mM stock solution. Both of the excitation and emission slit widths were 10 nm. Fluorescence of 1-NPN was excited at 337 nm and the emission spectra were recorded between 390 and 490 nm. Z11-16:Ald and Z9-16:Ald were purchased from Sigma-Aldrich (purity >98%). All chemicals used in this study were dissolved in HPLC purity grade methanol. Fluorescence measurements were performed according to Gu et al.[11]. Dissociation constants of the competitors were calculated from the corresponding IC50 (the ligand concentration displacing 50% of the NPN fluorescence intensity of the HarmPBP1/1-NPN complex) values, using the equation: Ki = [IC50]/(1 + [1-NPN]/K1-NPN), where [1-NPN] is the free concentration of 1-NPN and K1-NPN is the dissociation constant of the HarmPBP1/1-NPN complex.

HarmPBP1 mutant F12A = HarmPBP1 mutant F12A (Helicoverpa armigera, UniProt F5ANH9, F39A); experiment: Fluorescence binding assay (1-NPN probe), mutant F12A
Description: as §1, §2, §3

HarmPBP1 (wild-type) = HarmPBP1 (wild-type) (Helicoverpa armigera, UniProt F5ANH9); experiment: Fluorescence binding assay (1-NPN probe), wild-type HarmPBP1; details: for Ki / IC50: wild-type HarmPBP1, pH 7.4; for Ki: calculated from IC50, Ki = [IC50]/(1 + [1-NPN]/K1-NPN), read-out: Ki, dissociation constant; for IC50: mean ± S.E.M, three replicates, read-out: IC50, ligand concentration displacing 50% of the fluorescence intensity of the protein/1-NPN complex
Description: as §1, §3

HarmPBP1 mutant W37A = HarmPBP1 mutant W37A (Helicoverpa armigera, UniProt F5ANH9, W64A); experiment: Fluorescence binding assay (1-NPN probe), mutant W37A
Description: as §1, §2, §3

HarmPBP1 mutant F119A = HarmPBP1 mutant F119A (Helicoverpa armigera, UniProt F5ANH9, F146A); experiment: Fluorescence binding assay (1-NPN probe), mutant F119A
Description: as §1, §2, §3

HarmPBP1 mutant Q64A = HarmPBP1 mutant Q64A (Helicoverpa armigera, UniProt F5ANH9, Q91A); experiment: Fluorescence binding assay (1-NPN probe), control mutant Q64A
Description: as §1, §2, §3

HarmPBP1 mutant F119A, sequence (F5ANH9 entry or part of it F146A): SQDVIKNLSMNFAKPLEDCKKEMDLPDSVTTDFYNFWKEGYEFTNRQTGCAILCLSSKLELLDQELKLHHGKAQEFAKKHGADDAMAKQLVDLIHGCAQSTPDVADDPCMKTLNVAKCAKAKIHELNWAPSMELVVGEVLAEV
HarmPBP1 (wild-type), sequence (F5ANH9 entry or part of it): as the sequence (F5ANH9 entry or part of it F146A) above, with A119F counted along it
HarmPBP1 mutant Q64A, sequence (F5ANH9 entry or part of it Q91A): as the sequence (F5ANH9 entry or part of it F146A) above, with Q64A, A119F counted along it
HarmPBP1 mutant F12A, sequence (F5ANH9 entry or part of it F39A): as the sequence (F5ANH9 entry or part of it F146A) above, with F12A, A119F counted along it
HarmPBP1 mutant W37A, sequence (F5ANH9 entry or part of it W64A): as the sequence (F5ANH9 entry or part of it F146A) above, with W37A, A119F counted along it
HarmPBP1 mutant F36A, sequence (F5ANH9 entry or part of it F63A): as the sequence (F5ANH9 entry or part of it F146A) above, with F36A, A119F counted along it

| Compound | IC50 (HarmPBP1 mutant F36A) [µM] | Ki (HarmPBP1 mutant F36A) [µM] | IC50 (HarmPBP1 mutant F12A) [µM] | Ki (HarmPBP1 mutant F12A) [µM] | Ki (HarmPBP1 (wild-type)) [µM] | IC50 (HarmPBP1 (wild-type)) [µM] | IC50 (HarmPBP1 mutant W37A) [µM] | Ki (HarmPBP1 mutant W37A) [µM] | IC50 (HarmPBP1 mutant F119A) [µM] | Ki (HarmPBP1 mutant F119A) [µM] | IC50 (HarmPBP1 mutant Q64A) [µM] | Ki (HarmPBP1 mutant Q64A) [µM] | Kd (HarmPBP1 mutant F36A) [µM] | Kd (HarmPBP1 mutant F12A) [µM] | Kd (HarmPBP1 (wild-type)) [µM] | Kd (HarmPBP1 mutant W37A) [µM] | Kd (HarmPBP1 mutant F119A) [µM] | Kd (HarmPBP1 mutant Q64A) [µM] |
| --- | --- | --- | --- | --- | --- | --- | --- | --- | --- | --- | --- | --- | --- | --- | --- | --- | --- | --- |
| CCCCCC/C=C\CCCCCCCC=O [Z9-16:Ald, (Z)-9-hexadecenal] | 0.98 ± 0.15 | 0.72 ± 0.11 | 4.63 ± 0.27 | 3.06 ± 0.22 | 0.56 ± 0.05 | 0.87 ± 0.08 | 2.22 ± 0.19 | 1.49 ± 0.13 | 6.91 ± 0.49 | 4.61 ± 0.33 | 0.84 ± 0.06 | 0.58 ± 0.03 | – | – | – | – | – | – |
| c1ccc(Nc2cccc3ccccc23)cc1 [1-NPN, N-phenyl-1-naphthylamine] | – | – | – | – | – | – | – | – | – | – | – | – | 4.05 ± 0.69 | 2.1 ± 0.17 | 1.79 ± 0.14 | 1.87 ± 0.18 | 1.96 ± 0.16 | 2.39 ± 0.19 |
| CCCC/C=C\CCCCCCCCCC=O [Z11-16:Ald, (Z)-11-hexadecenal] | 1.04 ± 0.06 | 0.76 ± 0.08 | 4.69 ± 0.33 | 3.1 ± 0.13 | 0.67 ± 0.05 | 1.03 ± 0.08 | 2.91 ± 0.12 | 1.95 ± 0.08 | 7.66 ± 0.56 | 5.11 ± 0.47 | 1.12 ± 0.21 | 0.77 ± 0.13 | – | – | – | – | – | – |
